Measurements as given in article PMC3702004, “Comparison of Intake and Systemic Relative Effect Potencies of Dioxin-like Compounds in Female Mice after a Single Oral Dose” (Environmental Health Perspectives, 2013).
Like-named read-outs stand apart in the source and are kept apart here.

What was measured:
[1] = toxic equivalency factor relative to TCDD; ref Van den Berg et al. 2006; cited from earlier work
[2] = Body and organ weight, hepatic lipid content; assay type: in vivo, female C57BL/6 mice; conditions: day 3; for % lipid / g liver: pooled liver samples
Procedure: (§1) Animals. Eight-week-old female C57BL/6 mice (Harlan laboratories, Venray, the Netherlands) were randomly assigned to treatment groups (six animals per group) and allowed to acclimate for 1.5 weeks. The animals were housed in groups in standard cages and conditions (23 ± 2°C, 50–60% relative humidity, 12-hr dark/light cycle) with free access to food and water. Mice received a single dose of test compound by oral gavage at a dosing volume of 10 mL/kg body weight (BW). Mice treated with corn oil vehicle (10 mL/kg BW) served as controls. For each congener, five different doses were administered, ranging from 0.5–100 μg/kg BW (TCDD) to 5,000–500,000 µg/kg BW (PCB-153). Detailed information on doses is provided in Supplemental Material, Table S1 (http://dx.doi.org/10.1289/ehp.1206336). On day 3 after dosing, animals were euthanized by CO2/O2 asphyxiation, and blood was immediately collected from the abdominal aorta. The liver, thymus, spleen, and adipose tissue were removed, weighed (liver, thymus, and spleen), snap frozen, and stored at –80°C. All animal treatments were performed with permission of the Animal Ethical Committee (DEC Utrecht) and performed according to the [Law on Animal Experiments (1977)]. Animals were treated humanely and with regard for alleviation of suffering.
(§2) Compound analysis. Adipose and liver tissues samples were homogenized in Na2SO4, followed by extraction and clean-up in one step, and then eluted with 200 mL 1:1 hexane:dichloromethane on an open column packed with 40% wt/wt H2SO4-impregnated silica and KOH-silica. Blood plasma samples were extracted on an open column using Chem-Elut (Agilent Technologies, Santa Clara, CA, USA) and then NaCl eluted with 75 mL 3:2 hexane:2-propanol. Clean-up was performed using a miniaturized silica column (as described above), and samples were eluted using 30 mL hexane. Because the samples typically contained high levels of the analytes, only a small fraction was evaporated and analyzed. Prior to evaporation, we spiked a fraction of the samples with ^13C-labeled standards. We checked potential loss of analytes during extraction and clean-up by reextracting the samples using the identical protocol used for the samples. […] Tetradecane was added prior to evaporation. Sample analysis followed the U.S. Environmental Protection Agency Method 1613 ([U.S. Environmental Protection Agency 1994]) using single ion monitoring mode on an Agilent 6809N gas chromatograph (Agilent Technologies) coupled with a Micromass Ultima Autospec Ultra high-resolution mass spectrometer (HRMS; Waters Corp., Milford, MA, USA). Compounds were separated on a 60 m × 0.25 mm DB5-MS column ([…]; J&W Scientific, Folsom, CA, USA). The HRMS was operated with electron impact ionization with electron energy of 35 eV and an ion source temperature of 250°C. To reduce the number of analyses, samples were pooled before clean-up. […] This method was used because full congener–specific separation could be achieved on the high-resolution GC–HRMS. For lipid determination, samples were evaporated to dryness after the extraction step, and the amount of lipids was determined gravimetrically. Concentrations were calculated based on lipid weight and wet weight. The analysis of samples for the PCB-118 5,000 μg/kg BW dose failed during the procedure; thus analysis for this group could not be completed.
Statistical analysis. Statistical significant differences of the means and variances were determined using one-way analysis of variance (ANOVA) followed by Tukey-Kramer multiple comparisons. Differences were considered statistically significant at p < 0.05. Statistical calculations were performed using GraphPad 6.01 (GraphPad Software Inc.).

[3] = Compound analysis: liver, adipose and plasma concentrations 3 days after a single oral dose; assay type: in vivo, female C57BL/6 mice; conditions: for Liver:adipose ratio: based on ng/g tissue, day 3; for concentration at 3 days: female, C57BL/6, mouse, in vivo, po
Procedure: as §1, §2
Plasma and PBL isolation. Blood from two mice was pooled (total volume of approximately 1.4 mL); plasma and PBLs were then isolated using Ficoll Paque gradient (GE Healthcare Europe, Diegem, Belgium). Plasma samples were stored at –80°C until compound analysis. Isolated lymphocytes were lysed with RLT buffer (QIAGEN, Venlo, the Netherlands) as described in the QIAGEN RNAeasy kit protocol and stored at –80°C until use.

[4] = oral dose 0.5 µg/kg bw, 3 days after single oral dose
[5] = oral dose 2.5 µg/kg bw, 3 days after single oral dose
[6] = oral dose 10 µg/kg bw, 3 days after single oral dose
[7] = oral dose 25 µg/kg bw, 3 days after single oral dose
[8] = oral dose 100 µg/kg bw, 3 days after single oral dose

For Clc1cc2c(cc1Cl)Oc1c(cc(Cl)c(Cl)c1Cl)O2 [PeCDD, 1,2,3,7,8-pentachlorodibenzodioxin], the WHO-TEF [1] is given as 1, the Body weight ([2]; oral dose 0.5 µg/kg bw) is given as 18.6 ± 1.3 gram and the Liver weight ([2]; oral dose 0.5 µg/kg bw) is given as 4.56 ± 0.34 % of bw. For the same compound, the Spleen weight ([2]; oral dose 0.5 µg/kg bw) was 0.30 ± 0.02 % of bw, the Thymus weight ([2]; oral dose 0.5 µg/kg bw) was 0.21 ± 0.03 % of bw and the “% lipid / g liver” value ([2]; oral dose 0.5 µg/kg bw) was 4.7%. For the same compound, the Body weight ([2]; oral dose 2.5 µg/kg bw) was 19.4 ± 1.1 gram, the Liver weight ([2]; oral dose 2.5 µg/kg bw) was 5.02 ± 0.26 % of bw and the Spleen weight ([2]; oral dose 2.5 µg/kg bw) was 0.31 ± 0.03 % of bw. The Thymus weight ([2]; oral dose 2.5 µg/kg bw) was 0.29 ± 0.04 % of bw, the “% lipid / g liver” value ([2]; oral dose 2.5 µg/kg bw) was 6.0% and the Body weight ([2]; oral dose 10 µg/kg bw) was 18.9 ± 1.2 gram. The Liver weight ([2]; oral dose 10 µg/kg bw) was 5.32 ± 0.43 % of bw, the Spleen weight ([2]; oral dose 10 µg/kg bw) was 0.32 ± 0.04 % of bw and the Thymus weight ([2]; oral dose 10 µg/kg bw) was 0.23 ± 0.06 % of bw. For the same compound, the “% lipid / g liver” value ([2]; oral dose 10 µg/kg bw) was 6.2%, the Body weight ([2]; oral dose 25 µg/kg bw) was 19.4 ± 1.5 gram and the Liver weight ([2]; oral dose 25 µg/kg bw) was 5.26 ± 0.27 % of bw. The Spleen weight ([2]; oral dose 25 µg/kg bw) was 0.32 ± 0.04 % of bw, the Thymus weight ([2]; oral dose 25 µg/kg bw) was 0.26 ± 0.05 % of bw and the Body weight ([2]; oral dose 100 µg/kg bw) was 18.8 ± 1.1 gram. The Liver weight ([2]; oral dose 100 µg/kg bw) was 5.83 ± 0.50 % of bw, the Spleen weight ([2]; oral dose 100 µg/kg bw) was 0.33 ± 0.04 % of bw and the Thymus weight ([2]; oral dose 100 µg/kg bw) was 0.24 ± 0.05 % of bw. The “Dose with significant increase in liver weight vs vehicle controls” value ([2]; single oral dose) was ≥ 100 µg/kg BW, the “liver:adipose ratio (hepatic sequestration criterion 0.3)” value ([3]; 3 days after single oral dose, Table 1 doses) was > 0.3 and the “Liver:adipose ratio” value ([3]; dose 0.5 μg/kg BW) was 4.4±0.9. For the same compound, the “Liver:adipose ratio” value ([3]; dose 2.5 μg/kg BW) was 7.0±1.1, the “Liver:adipose ratio” value ([3]; dose 10 μg/kg BW) was 6.7±1.4 and the concentration at 3 days ([3]; 0.5 µg/kg bw, oral dose 0.5 µg/kg bw, 3 days after single oral dose, read-out: Adipose concentration) was 0.9 ± 0.2 ng/g. The concentration at 3 days ([3]; 0.5 µg/kg bw, oral dose 0.5 µg/kg bw, 3 days after single oral dose, read-out: Liver concentration) was 4 ± 0.7 ng/g, the concentration at 3 days ([3]; 2.5 µg/kg bw, oral dose 2.5 µg/kg bw, 3 days after single oral dose, read-out: Adipose concentration) was 3.8 ± 0.7 ng/g and the concentration at 3 days ([3]; 2.5 µg/kg bw, oral dose 2.5 µg/kg bw, 3 days after single oral dose, read-out: Liver concentration) was 27 ± 6 ng/g. It also gave a concentration at 3 days ([3]; 10 µg/kg bw, oral dose 10 µg/kg bw, 3 days after single oral dose, read-out: Adipose concentration) of 16 ± 5 ng/g, a concentration at 3 days ([3]; 10 µg/kg bw, oral dose 10 µg/kg bw, 3 days after single oral dose, read-out: Liver concentration) of 103 ± 23 ng/g and a concentration at 3 days ([3]; 10 µg/kg bw, oral dose 10 µg/kg bw, 3 days after single oral dose, read-out: Plasma concentration) of 0.032 ng/g. The concentration at 3 days ([3]; 25 µg/kg bw, oral dose 25 µg/kg bw, 3 days after single oral dose, read-out: Plasma concentration) was 0.052 ng/g, the concentration at 3 days ([3]; 100 µg/kg bw, oral dose 100 µg/kg bw, 3 days after single oral dose, read-out: Plasma concentration) was 0.298 ng/g and the “Adipose % dose / g tissue” value [3, 4] was 9.3 % dose / g tissue. For the same compound, the Adipose concentration [3, 4] was 1.1 ± 0.2 ng/g lipid, the “Liver % dose / g tissue” value [3, 4] was 40 % dose / g tissue and the Liver concentration [3, 4] was 85 ± 14 ng/g lipid. The “Plasma % dose / g tissue” value [3, 4] was 0.037 % dose / g tissue, the “Adipose % dose / g tissue” value [3, 5] was 7.7 % dose / g tissue and the Adipose concentration [3, 5] was 4.3 ± 0.8 ng/g lipid. The “Liver % dose / g tissue” value [3, 5] was 54 % dose / g tissue, the Liver concentration [3, 5] was 446 ± 96 ng/g lipid and the “Plasma % dose / g tissue” value [3, 5] was 0.024 % dose / g tissue. The “Adipose % dose / g tissue” value [3, 6] was 8.0 % dose / g tissue, the Adipose concentration [3, 6] was 19 ± 6 ng/g lipid and the “Liver % dose / g tissue” value [3, 6] was 51 % dose / g tissue. For the same compound, the Liver concentration [3, 6] was 1669 ± 378 ng/g lipid, the “Plasma % dose / g tissue” value [3, 6] was 0.016 % dose / g tissue and the Plasma concentration [3, 6] was 19 ± 7 ng/g lipid. For the same compound, the “Plasma % dose / g tissue” value [3, 7] was 0.010 % dose / g tissue, the Plasma concentration [3, 7] was 30 ± 2 ng/g lipid and the “Plasma % dose / g tissue” value [3, 8] was 0.015 % dose / g tissue. The Plasma concentration [3, 8] was 157 ± 21 ng/g lipid.
